According to patent US20200147243A1, “LIGAND COMPOUND OF ALPHA7 NICOTINIC ACETYLCHOLINE RECEPTOR AND APPLICATION THEREOF” (BEIJING NORMAL UNIVERSITY, priority 2017, published 2020):
Several values for one entry are separate records, joined by “and”; a condition that tells them apart may be missing. Equal values may be shown once.

Test: In vivo distribution experiment in animals
Conditions: for brain/blood ratio / Absorption Amount, blood / Absorption Amount, bone / Absorption Amount, brain / Absorption Amount, heart / Absorption Amount, kidney / Absorption Amount, liver / Absorption Amount, lung / Absorption Amount, muscle / Absorption Amount, spleen: female Kunming mice; for Absorption Amount, blood / Absorption Amount, bone / Absorption Amount, brain / Absorption Amount, heart / Absorption Amount, kidney / Absorption Amount, liver / Absorption Amount, lung / Absorption Amount, muscle / Absorption Amount, spleen: tail vein

## O=C1c2cc(N3CCN4CCC3CC4)ccc2-c2cccc([18F])c21 [[^18F] II-15]
5-90 min, mice
  in vivo defluorination phenomenon (bone absorption): relatively weaker
5 min
  brain/blood ratio: 6.23
  Absorption Amount, blood: 1.43 ± 0.06 % ID/g wet weight
  Absorption Amount, bone: 3.02 ± 0.11 % ID/g wet weight
  Absorption Amount, brain: 8.98±0.41 % ID/g wet weight
  Absorption Amount, heart: 8.37 ± 0.14 % ID/g wet weight
  Absorption Amount, kidney: 15.92 ± 0.24 % ID/g wet weight
  Absorption Amount, liver: 8.19 ± 1.19 % ID/g wet weight
  Absorption Amount, lung: 70.52 ± 7.86 % ID/g wet weight
  Absorption Amount, muscle: 5.51 ± 0.65 % ID/g wet weight
  Absorption Amount, spleen: 7.72 ± 0.65 % ID/g wet weight
15 min
  brain/blood ratio: 9.57 and 9.35
  Absorption Amount, blood: 1.24 ± 0.16 % ID/g wet weight
  Absorption Amount, bone: 4.55 ± 0.68 % ID/g wet weight
  Absorption Amount, brain: 11.60±0.14 % ID/g wet weight
  Absorption Amount, heart: 4.45 ± 0.62 % ID/g wet weight
  Absorption Amount, kidney: 11.54 ± 0.79 % ID/g wet weight
  Absorption Amount, liver: 12.28 ± 1.96 % ID/g wet weight
  Absorption Amount, lung: 20.23 ± 1.51 % ID/g wet weight
  Absorption Amount, muscle: 3.48 ± 0.40 % ID/g wet weight
  Absorption Amount, spleen: 11.58 ± 0.92 % ID/g wet weight
30 min
  brain/blood ratio: 9.57
  Absorption Amount, blood: 1.03 ± 0.07 % ID/g wet weight
  Absorption Amount, bone: 4.84 ± 0.18 % ID/g wet weight
  Absorption Amount, brain: 9.86 ± 0.05 % ID/g wet weight
  Absorption Amount, heart: 3.56 ± 0.31 % ID/g wet weight
  Absorption Amount, kidney: 8.06 ± 0.69 % ID/g wet weight
  Absorption Amount, liver: 13.74 ± 1.36 % ID/g wet weight
  Absorption Amount, lung: 18.30 ± 1.56 % ID/g wet weight
  Absorption Amount, muscle: 2.36 ± 0.30 % ID/g wet weight
  Absorption Amount, spleen: 8.67 ± 0.48 % ID/g wet weight
60 min
  brain/blood ratio: 8.03
  Absorption Amount, blood: 0.68 ± 0.01 % ID/g wet weight
  Absorption Amount, bone: 7.27 ± 1.31 % ID/g wet weight
  Absorption Amount, brain: 5.46±0.27 % ID/g wet weight
  Absorption Amount, heart: 2.19 ± 0.16 % ID/g wet weight
  Absorption Amount, kidney: 4.85 ± 0.443 % ID/g wet weight
  Absorption Amount, liver: 9.74 ± 0.07 % ID/g wet weight
  Absorption Amount, lung: 7.64 ± 0.99 % ID/g wet weight
  Absorption Amount, muscle: 1.79 ± 0.06 % ID/g wet weight
  Absorption Amount, spleen: 4.08 ± 0.38 % ID/g wet weight
90 min
  brain/blood ratio: 6.98
  Absorption Amount, blood: 0.52 ± 0.06 % ID/g wet weight
  Absorption Amount, bone: 7.65 ± 0.52 % ID/g wet weight
  Absorption Amount, brain: 3.63±0.25 % ID/g wet weight
  Absorption Amount, heart: 1.71 ± 0.13 % ID/g wet weight
  Absorption Amount, kidney: 4.26 ± 0.19 % ID/g wet weight
  Absorption Amount, liver: 7.46 ± 0.19 % ID/g wet weight
  Absorption Amount, lung: 4.99 ± 0.45 % ID/g wet weight
  Absorption Amount, muscle: 1.32 ± 0.11 % ID/g wet weight
  Absorption Amount, spleen: 2.97 ± 0.25 % ID/g wet weight
